Source: patent publication US20220017572A1, “GEMINOID LIPOPEPTIDE COMPOUNDS AND THEIR USES” (Erasmus University Medical Center Rotterdam, priority 2016, published 2022)
Residues, ends and D or L forms follow the SMILES beside them.

Assays:
DENV-2/NGC = test: Dengue replication (plaque) assay in VERO cells; format: cell-based, Dengue virus
Description: 1×10^6 Vero E6 cells were plated per well into a 6-wells plate and incubated overnight at 37° C. Next day, the DENV-2/NGC virus stock was diluted to 10^4 TICD50/ml, 10^3 TICD50/ml, 10^2 TICD50/ml and 1 ml of the respective virus dilutions was added to each well. Wells contained approximately 80% confluent monolayers of Vero cells. After an incubation period of 1 hour at 37° C., cells were washed twice with medium (DMEM) and medium containing 2% methyl cellulose was added to the wells. To this medium C16-KAK-C16 10 uM was added (W) in DMSO, or an equivalent amount of DMSO (0.05%) was added (W/O). Plate was incubated at 37° C. for two days. Methyl cellulose overlays were removed and cells were fixed with absolute ethanol. Cells were subsequently incubated with specific DENY monoclonal antibody for 1 hour at 37° C., followed by incubation with HRPO-labeled rabbit-anti mouse conjugate. Positive plaques were counted after incubation with AEC substrate chromogen.
The experiment was performed as described in the legend of FIG. 8 at a viral dose of 10^3 TICD50/ml in all plates.
C16-KAK-C16 was subsequently tested in a standard Dengue replication (plaque) assay in VERO cells (FIG. 8). […] In a separate experiment this was confirmed with a constant intermediate viral load of and different concentrations of C16-KAK-C16 (FIG. 9)

dengue 2 protease = target: T1, dengue 2 protease (Dengue virus type 2, UniProt P14340); test: Dengue 2 protease inhibition, hydrolysis of Z-RR-MCA; format: biochemical, dengue 2 virus; parameters: unit not given here; conditions: 30 μM of inhibitor; 10 μM Z-RR-MCA, pH 9.0, 37° C.; initial activity in UAF/min
T1 construct: The active site of the dengue protease is in the N-terminal part of NS3
T1 sequence (P14340 1476-1653): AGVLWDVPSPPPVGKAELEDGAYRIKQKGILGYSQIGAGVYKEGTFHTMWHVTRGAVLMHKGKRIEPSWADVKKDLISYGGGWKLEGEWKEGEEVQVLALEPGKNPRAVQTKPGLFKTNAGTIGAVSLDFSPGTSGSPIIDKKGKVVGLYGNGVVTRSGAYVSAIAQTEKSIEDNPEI

[1] = target: T2, Dengue NS3-NS2B peptidase (Dengue virus type 2, UniProt P14340); test: Dengue NS3-NS2B peptidase hydrolysis of Abz-AKRRSQ-EDDnp; format: biochemical; conditions: 50 mM Tris-HCl pH 9.0, FIG. 5
T2 construct: The active site of the dengue protease is in the N-terminal part of NS3
T2 sequence (P14340 1476-1653): as above
Description: FIG. 5A, FIG. 5B and FIG. 5C show Dengue NS3-NS2B peptidase hydrolysis of Abz-AKRRSQ-EDDnp (SEQ ID NO:1) in 50 mM Tris-HCl pH 9.0. FIG. 5A Inhibitors: (◯) C16-KAAK-C16 (SEQ ID NO:42), (▪)C16-KAK-C16, (▴)C16-KGGK-C16(SEQ ID NO:41). FIG. 5B Substrates: (◯) Abz AKRRSQ-EDDnp (SEQ ID NO:1) and (●) Suc AAPF-MCA with different concentrations of C16-KGGK-C16 (SEQ ID NO:41). FIG. 5C Followed in time at different C16-KGGK-C16 (SEQ ID NO:41) concentrations.
FIG. 6A and FIG. 6B show Dengue NS3-NS2B peptidase hydrolysis of Abz AKRRSQ-EDDnp (SEQ ID NO:1) in the presence of C16-KK-C16 (KR), C16-KAK-C16 (KAK), C16-KAAK-C16 (KAAK; (SEQ ID NO:42)), C16-KAAAAK-C16 (KAAAAK; (SEQ ID NO:53)), C16-KGK-C16 (KOK), C16-KGGK-C16 (KOOK; (SEQ ID NO:41)), and C16-KGGGK-C16 (KGGGK; (SEQ ID NO:40)). “◯” means enzyme activity without inhibitor. FIG. 6A E+K means that the inhibitor+enzyme were pre-incubated for 0, 15 and 30 min and then the substrate was added. FIG. 6B K means that the inhibitor was pre-incubated for 0, 15 and 30 min and then the enzyme and substrate were added.
The best substrate for dengue protease is Abz-AKRR↓SQ-EDDnp (SEQ ID NO:1) [Gouvea et al., 2007]. […] Geminoids with either G or A are inhibitors of Dengue protease, but which is the better inhibitor does depend on the nature of the substrates (compare FIG. 5a and Table 1). […]

| Compound | inhibition of plaque formation (DENV-2/NGC; 10 uM, Vero E6 cells, DENV-2/NGC 10^2-10^4 TICD50/ml, two days, depending on the viral load) | virus replication (in words) (DENV-2/NGC; VERO cells, DENV-2/NGC) | Activity with inhibitors (dengue 2 protease) | inhibition of Dengue protease with substrate Abz-AKRRSQ-EDDnp (in words) [1] |
| --- | --- | --- | --- | --- |
| CCCCCCCCCCCCCCCCNC(=O)[C@H](CCCCN)NC(=O)[C@H](C)NC(=O)[C@H](CCCCN)NC(=O)CCCCCCCCCCCCCCC [C16-KAK-C16] | up to 90% | significant reduction of virus replication | 0 |  |
| CCCCCCCCCCCCCCCCNC(=O)[C@H](CCCCN)NC(=O)CNC(=O)CNC(=O)[C@H](CCCCN)NC(=O)CCCCCCCCCCCCCCC [C16-KGGK-C16, C15H31CO-KGGK-NH—C16H33] (HELM PEPTIDE1{[CCCCCCCCCCCCCCCC(=O)[*:2]].K.G.G.K.[CCCCCCCCCCCCCCCCN[*:1]]}$$$$V2.0) |  |  |  | does not depend on the choice of substrate |
